In US20260184710A1, “CASITAS B-LINEAGE LYMPHOMA PROTOONCOGENE B (CBL-B) DEGRADING COMPOUNDS AND ASSOCIATED METHODS OF USE” (Arvinas Operations, Inc., priority 2022, published 2026):

These molecules were tested against T1, Cbl-b (Homo sapiens, UniProt Q13191) (assay: Cbl-b Degradation Method B (Nano-Glo HiBiT lytic detection)). Conditions: Cbl-b-HiBit KI Jurkat Cells, incubated at least 6-24 hours; half maximal degradation; read-out: Cbl-b Degredation Method B IC50.
T1 construct: Cbl-b-HiBit KI Jurkat Cells were purchased from Promega; host or cells: Cbl-b-HiBiT knock-in Jurkat cells
T1 sequence (Q13191 whole entry): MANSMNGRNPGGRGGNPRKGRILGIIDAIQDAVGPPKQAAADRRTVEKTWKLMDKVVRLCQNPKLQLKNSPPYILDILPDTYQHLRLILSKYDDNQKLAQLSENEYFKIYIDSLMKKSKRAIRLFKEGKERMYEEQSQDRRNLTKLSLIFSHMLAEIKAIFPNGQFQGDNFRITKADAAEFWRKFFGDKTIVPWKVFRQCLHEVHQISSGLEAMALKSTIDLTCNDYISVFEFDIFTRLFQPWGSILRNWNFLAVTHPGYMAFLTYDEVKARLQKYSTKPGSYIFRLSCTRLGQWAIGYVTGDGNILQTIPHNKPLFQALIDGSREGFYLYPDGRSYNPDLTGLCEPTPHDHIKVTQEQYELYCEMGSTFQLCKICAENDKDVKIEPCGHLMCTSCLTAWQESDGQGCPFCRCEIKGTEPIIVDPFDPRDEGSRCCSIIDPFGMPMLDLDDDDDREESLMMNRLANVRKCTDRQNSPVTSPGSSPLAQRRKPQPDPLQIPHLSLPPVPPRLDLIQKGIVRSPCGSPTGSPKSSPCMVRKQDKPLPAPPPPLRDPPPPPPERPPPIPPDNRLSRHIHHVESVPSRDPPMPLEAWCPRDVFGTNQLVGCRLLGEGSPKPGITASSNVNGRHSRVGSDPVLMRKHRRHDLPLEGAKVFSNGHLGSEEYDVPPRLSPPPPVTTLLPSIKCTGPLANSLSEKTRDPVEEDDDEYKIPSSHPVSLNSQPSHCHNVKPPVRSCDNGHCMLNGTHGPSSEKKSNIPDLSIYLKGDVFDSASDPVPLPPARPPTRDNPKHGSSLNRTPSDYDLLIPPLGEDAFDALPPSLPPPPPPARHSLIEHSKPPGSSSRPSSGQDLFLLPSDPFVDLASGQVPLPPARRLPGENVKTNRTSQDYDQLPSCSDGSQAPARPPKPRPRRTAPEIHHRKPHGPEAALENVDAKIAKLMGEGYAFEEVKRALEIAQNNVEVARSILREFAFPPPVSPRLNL
Type: cell-based
Outline: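 Cbl-b-HiBiT knock-in Jurkat cells (20,000/well) were treated after ~24 h plating with an 11-point 1:3 series for 6-24 h at 37° C. Remaining Cbl-b measured by Nano-Glo HiBiT lytic luminescence. DC50 and Dmax expressed as % of control.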

DC50, > 500 nM:
Cn1cnnc1CC1(c2cccc(N3Cc4c(cc(CN5CCN([C@H]6CC[C@H](Nc7ccc8c(c7)C(=O)N(C7CCC(=O)NC7=O)C8=O)CC6)CC5)cc4C(F)(F)F)C3=O)c2)COC1 (some centres unmarked) [Example 44, 2-(2,6-dioxopiperidin-3-yl)-5-{[(1r,4r)-4-(4-{[2-(3-{3-[(4-methyl-4H-1,2,4-triazol-3-yl)methyl]oxetan-3-yl}phenyl)-3-oxo-7-(trifluoromethyl)-2,3-dihydro-1H-isoindol-5-yl]methyl}piperazin-1-yl)cyclohexyl]amino}-2,3-dihydro-1H-isoindole-1,3-dione]
Cn1cnnc1CC1(c2cccc(N3Cc4c(cc(CN5CCC6(CC5)CCN(CC5CCN(c7ccc8c(c7)C(=O)N(C7CCC(=O)NC7=O)C8=O)CC5)CC6)cc4C(F)(F)F)C3=O)c2)COC1 (centres unmarked) [Example 45, 2-(2,6-dioxopiperidin-3-yl)-5-{4-[(9-{[2-(3-{3-[(4-methyl-4H-1,2,4-triazol-3-yl)methyl]oxetan-3-yl}phenyl)-3-oxo-7-(trifluoromethyl)-2,3-dihydro-1H-isoindol-5-yl]methyl}-3,9-diazaspiro[5.5]undecan-3-yl)methyl]piperidin-1-yl}-2,3-dihydro-1H-isoindole-1,3-dione]
Cn1cnnc1CC1(c2cccc(N3Cc4c(cc(CN5CCC(CN6CCN(CC7CCN(c8ccc9c(c8)C(=O)N(C8CCC(=O)NC8=O)C9=O)CC7)CC6)CC5)cc4C(F)(F)F)C3=O)c2)COC1 (centres unmarked) [Example 46, 2-(2,6-dioxopiperidin-3-yl)-5-[4-({4-[(1-{[2-(3-{3-[(4-methyl-4H-1,2,4-triazol-3-yl)methyl]oxetan-3-yl}phenyl)-3-oxo-7-(trifluoromethyl)-2,3-dihydro-1H-isoindol-5-yl]methyl}piperidin-4-yl)methyl]piperazin-1-yl}methyl)piperidin-1-yl]-2,3-dihydro-1H-isoindole-1,3-dione]
Cn1cnnc1CC1(c2cccc(N3Cc4c(cc(CN5CCN(CCCOc6ccc7c(c6)C(=O)N(C6CCC(=O)NC6=O)C7=O)CC5)cc4C(F)(F)F)C3=O)c2)COC1 (centres unmarked) [Example 47, 2-(2,6-dioxopiperidin-3-yl)-5-[3-(4-{[2-(3-{3-[(4-methyl-4H-1,2,4-triazol-3-yl)methyl]oxetan-3-yl}phenyl)-3-oxo-7-(trifluoromethyl)-2,3-dihydro-1H-isoindol-5-yl]methyl}piperazin-1-yl)propoxy]-2,3-dihydro-1H-isoindole-1,3-dione]
Cn1cnnc1CC1(c2cccc(N3Cc4c(cc(CN5CC6(CCN(c7ccc8c(c7)C(=O)N(C7CCC(=O)NC7=O)C8=O)CC6)C5)cc4C(F)(F)F)C3=O)c2)COC1 (centres unmarked) [Example 49, 2-(2,6-dioxopiperidin-3-yl)-5-(2-{[2-(3-{3-[(4-methyl-4H-1,2,4-triazol-3-yl)methyl]oxetan-3-yl}phenyl)-3-oxo-7-(trifluoromethyl)-2,3-dihydro-1H-isoindol-5-yl]methyl}-2,7-diazaspiro[3.5]nonan-7-yl)-2,3-dihydro-1H-isoindole-1,3-dione]
COc1cc(N2CCN(CC3CCN(Cc4cc5c(c(C(F)(F)F)c4)CN(c4cccc(C6(Cc7nncn7C)COC6)c4)C5=O)CC3)CC2)cc2c1C(=O)N(C1CCC(=O)NC1=O)C2=O (centres unmarked) [Example 51, 2-(2,6-dioxopiperidin-3-yl)-4-methoxy-6-{4-[(1-{[2-(3-{3-[(4-methyl-4H-1,2,4-triazol-3-yl)methyl]oxetan-3-yl}phenyl)-3-oxo-7-(trifluoromethyl)-2,3-dihydro-1H-isoindol-5-yl]methyl}piperidin-4-yl)methyl]piperazin-1-yl}-2,3-dihydro-1H-isoindole-1,3-dione]
COc1cc(N2CCN(Cc3cc4c(c(C(F)(F)F)c3)CN(c3cccc(C5(Cc6nncn6C)COC5)c3)C4=O)CC2)cc2c1C(=O)N(C1CCC(=O)NC1=O)C2=O (centres unmarked) [Example 52, 2-(2,6-dioxopiperidin-3-yl)-4-methoxy-6-(4-{[2-(3-{3-[(4-methyl-4H-1,2,4-triazol-3-yl)methyl]oxetan-3-yl}phenyl)-3-oxo-7-(trifluoromethyl)-2,3-dihydro-1H-isoindol-5-yl]methyl}piperazin-1-yl)-2,3-dihydro-1H-isoindole-1,3-dione]
COc1ccc(C(=O)N2CCC(CN3CCN(Cc4cc5c(c(C(F)(F)F)c4)CN(c4cccc(C6(Cc7nncn7C)COC6)c4)C5=O)CC3)CC2)cc1N1CCC(=O)NC1=O [Example 53, 1-(2-methoxy-5-{4-[(4-{[2-(3-{3-[(4-methyl-4H-1,2,4-triazol-3-yl)methyl]oxetan-3-yl}phenyl)-3-oxo-7-(trifluoromethyl)-2,3-dihydro-1H-isoindol-5-yl]methyl}piperazin-1-yl)methyl]piperidine-1-carbonyl}phenyl)-1,3-diazinane-2,4-dione]
Cn1cnnc1CC1(c2cccc(N3Cc4c(cc(CN5CCN(CC6CCN(c7ccc(F)c(C(=O)NC8CCC(=O)NC8=O)c7)CC6)CC5)cc4C(F)(F)F)C3=O)c2)COC1 (centres unmarked) [Example 54, N-(2,6-dioxopiperidin-3-yl)-2-fluoro-5-{4-[(4-{[2-(3-{3-[(4-methyl-4H-1,2,4-triazol-3-yl)methyl]oxetan-3-yl}phenyl)-3-oxo-7-(trifluoromethyl)-2,3-dihydro-1H-isoindol-5-yl]methyl}piperazin-1-yl)methyl]piperidin-1-yl}benzamide]
Cn1cnnc1CC1(c2cccc(N3Cc4c(cc(CN5CCC(Cn6cccc(CN7CCC(=O)NC7=O)c6=O)CC5)cc4C(F)(F)F)C3=O)c2)COC1 [Example 55, 1-({1-[(1-{[2-(3-{3-[(4-methyl-4H-1,2,4-triazol-3-yl)methyl]oxetan-3-yl}phenyl)-3-oxo-7-(trifluoromethyl)-2,3-dihydro-1H-isoindol-5-yl]methyl}piperidin-4-yl)methyl]-2-oxo-1,2-dihydropyridin-3-yl}methyl)-1,3-diazinane-2,4-dione]
COc1ccc(N2CCC(CN3CCN(Cc4cc5c(c(C(F)(F)F)c4)CN(c4cccc(C6(Cc7nncn7C)COC6)c4)C5=O)CC3)CC2)cc1C(=O)NC1CCC(=O)NC1=O (centres unmarked) [Example 56, N-(2,6-dioxopiperidin-3-yl)-2-methoxy-5-{4-[(4-{[2-(3-{3-[(4-methyl-4H-1,2,4-triazol-3-yl)methyl]oxetan-3-yl}phenyl)-3-oxo-7-(trifluoromethyl)-2,3-dihydro-1H-isoindol-5-yl]methyl}piperazin-1-yl)methyl]piperidin-1-yl}benzamide]
Cn1cnnc1CC1(c2cccc(N3Cc4c(cc(CN5CCN(CC6CCN(c7ccc(N8CCC(=O)NC8=O)c(F)c7)CC6)CC5)cc4C(F)(F)F)C3=O)c2)COC1 [Example 57, 1-(2-fluoro-4-{4-[(4-{[2-(3-{3-[(4-methyl-4H-1,2,4-triazol-3-yl)methyl]oxetan-3-yl}phenyl)-3-oxo-7-(trifluoromethyl)-2,3-dihydro-1H-isoindol-5-yl]methyl}piperazin-1-yl)methyl]piperidin-1-yl}phenyl)-1,3-diazinane-2,4-dione]

DC50, 50 to 500 nM:
Cn1cnnc1CC1(c2cccc(N3Cc4c(cc(CN5CC(C6CN(c7ccc8c(c7)C(=O)N(C7CCC(=O)NC7=O)C8=O)C6)C5)cc4C(F)(F)F)C3=O)c2)COC1 (centres unmarked) [Example 48, 2-(2,6-dioxopiperidin-3-yl)-5-(1′-{[2-(3-{3-[(4-methyl-4H-1,2,4-triazol-3-yl)methyl]oxetan-3-yl}phenyl)-3-oxo-7-(trifluoromethyl)-2,3-dihydro-1H-isoindol-5-yl]methyl}-[3,3′-biazetidin]-1-yl)-2,3-dihydro-1H-isoindole-1,3-dione]

Same assay, conditions: Cbl-b-HiBit KI Jurkat Cells, incubated at least 6-24 hours; maximum degradation observed; read-out: Cbl-b Degredation Method B Dmax (%)

Dmax, 35 to 70%:
Cn1cnnc1CC1(c2cccc(N3Cc4c(cc(CN5CC(C6CN(c7ccc8c(c7)C(=O)N(C7CCC(=O)NC7=O)C8=O)C6)C5)cc4C(F)(F)F)C3=O)c2)COC1 (centres unmarked) [Example 48, 2-(2,6-dioxopiperidin-3-yl)-5-(1′-{[2-(3-{3-[(4-methyl-4H-1,2,4-triazol-3-yl)methyl]oxetan-3-yl}phenyl)-3-oxo-7-(trifluoromethyl)-2,3-dihydro-1H-isoindol-5-yl]methyl}-[3,3′-biazetidin]-1-yl)-2,3-dihydro-1H-isoindole-1,3-dione]
